In the supplement of paper PMC10307832:

Assays:
Assay in all cases: relative viability (nuclei count vs DMSO), 5 days (fraction); higher = more cells survive
[1] = compound: CN(c1ncccc1CNc1nc(Nc2ccc3c(c2)CC(=O)N3)ncc1C(F)(F)F)S(C)(=O)=O + CC1(C)CCC(c2ccc(Cl)cc2)=C(CN2CCN(c3ccc(C(=O)NS(=O)(=O)c4ccc(N[C@H](CCN5CCOCC5)CSc5ccccc5)c(S(=O)(=O)C(F)(F)F)c4)cc3)CC2)C1 [Navitoclax] (partner 0.5 µM)
Procedure, shortened: (§1)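 Dosing by pin tool came one day after lung cancer cell lines were seeded in 1536-well plates, using either one drug or a fixed anchor-drug dose plus five library-drug doses (not always all listed) in √10 steps. After 5 days, nuclei were counted on 4× images. Relative viability is treated-well nuclei count divided by vehicle-well nuclei count, and values are medians of duplicate plates.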

[2] = compound: CN(c1ncccc1CNc1nc(Nc2ccc3c(c2)CC(=O)N3)ncc1C(F)(F)F)S(C)(=O)=O + CC(C)C[C@H](NC(=O)[C@H](Cc1ccccc1)NC(=O)c1cnccn1)B(O)O [Bortezomib] (partner 0.002 µM)
Procedure, shortened: as §1

[3] = compound: CN(c1ncccc1CNc1nc(Nc2ccc3c(c2)CC(=O)N3)ncc1C(F)(F)F)S(C)(=O)=O + Cc1nc(Nc2ncc(C(=O)Nc3c(C)cccc3Cl)s2)cc(N2CCN(CCO)CC2)n1 [Dasatinib] (partner 0.075 µM)
Procedure, shortened: as §1

[4] = compound: CN(c1ncccc1CNc1nc(Nc2ccc3c(c2)CC(=O)N3)ncc1C(F)(F)F)S(C)(=O)=O + CCNC(=O)c1noc(-c2cc(C(C)C)c(O)cc2O)c1-c1ccc(CN2CCOCC2)cc1 [Luminespib] (partner 0.01 µM)
Procedure, shortened: as §1

Cell Line | relative viability ([1]; first compound 0.01 µM) | relative viability ([1]; first compound 0.03162 µM) | relative viability ([1]; first compound 0.1 µM) | relative viability ([1]; first compound 0.3162 µM) | relative viability ([1]; first compound 1 µM) | relative viability ([2]; first compound 0.01 µM) | relative viability ([2]; first compound 0.03162 µM) | relative viability ([2]; first compound 0.1 µM) | relative viability ([2]; first compound 0.3162 µM) | relative viability ([2]; first compound 1 µM) | relative viability ([3]; first compound 0.01 µM) | relative viability ([3]; first compound 0.03162 µM) | relative viability ([3]; first compound 0.1 µM) | relative viability ([3]; first compound 0.3162 µM) | relative viability ([3]; first compound 1 µM) | relative viability ([4]; first compound 0.01 µM) | relative viability ([4]; first compound 0.03162 µM) | relative viability ([4]; first compound 0.1 µM) | relative viability ([4]; first compound 0.3162 µM) | relative viability ([4]; first compound 1 µM)
PC-14 | 1.02 | 1.16 | 1.03 | 1.01 | 1.04 | 1.02 | 0.935 | 0.984 | 0.799 | 0.821 | 0.211 | 0.191 | 0.14 | 0.211 | 0.158 | 0.233 | 0.15 | 0.192 | 0.176 | 0.236
RERF-LC-KJ | 0.966 | 1.05 | 0.862 | 0.956 | 0.693 | 1.08 | 1.23 | 1.11 | 1.13 | 0.999 | 0.767 | 0.809 | 0.708 | 0.723 | 0.743 | 1.16 | 1.34 | 1.17 | 1.28 | 1.19
SK-LU-1 | 0.878 | 0.841 | 0.735 | 0.766 | 0.768 | 1.33 | 1.28 | 0.839 | 1.24 | 1.12 | 0.198 | 0.176 | 0.157 | 0.162 | 0.124 | 0.197 | 0.208 | 0.214 | 0.172 | 0.209
SW 1573 | 1.22 | 0.973 | 0.988 | 0.896 | 1.07 | 1.17 | 0.898 | 0.977 | 1.05 | 1.11 | 0.428 | 0.453 | 0.406 | 0.383 | 0.273 | 0.726 | 0.195 | 0.289 | 0.311 | 0.189
UMC-11 | 0.321 | 0.296 | 0.313 | 0.297 | 0.235 | 0.795 | 0.634 | 0.649 | 0.589 | 0.672 | 0.449 | 0.531 | 0.41 | 0.426 | 0.379 | 0.928 | 0.998 | 0.97 | 1.11 | 0.924
